ChEMBL document CHEMBL1201862, “PubChem BioAssay data set” (2004)
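Following 48 hours of exposure in 96-well plates, responses at five concentrations were used to interpolate endpoints linearly. GI50 is the concentration that inhibits growth by half.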 Activity calls are given as the source filed them. Cut-off read from the data, not from the text of the source: active = GI50 up to about 1.1 µM and inactive = higher.

Assays:
Assay in all cases: DTP human tumour cell line panel, 48 h
[1] = tested on: CCRF-CEM
[2] = tested on: K562
[3] = tested on: NCI-H522
[4] = tested on: A498
[5] = tested on: A549
[6] = tested on: ACHN
[7] = tested on: COLO 205
[8] = tested on: DU-145
[9] = tested on: HCC 2998
[10] = tested on: HCT-116
[11] = tested on: HCT-15
[12] = tested on: HL-60
[13] = tested on: HOP-92
[14] = tested on: HT-29
[15] = tested on: Hs-578T
[16] = tested on: KM12
[17] = tested on: LOX IMVI
[18] = tested on: M14
[19] = tested on: MCF7
[20] = tested on: MDA-MB-231
[21] = tested on: MDA-MB-435
[22] = tested on: MDA-N
[23] = tested on: MOLT-4
[24] = tested on: NCI-H226
[25] = tested on: NCI-H23
[26] = tested on: NCI-H460
[27] = tested on: NCI/ADR-RES
[28] = tested on: OVCAR-3
[29] = tested on: OVCAR-4
[30] = tested on: OVCAR-8
[31] = tested on: PC-3
[32] = tested on: RXF 393
[33] = tested on: SF-268
[34] = tested on: SF-295
[35] = tested on: SK-MEL-5
[36] = tested on: SN12C
[37] = tested on: SNB-19
[38] = tested on: SNB-75
[39] = tested on: SR
[40] = tested on: SW-620
[41] = tested on: T47D
[42] = tested on: TK-10
[43] = tested on: U-251
[44] = tested on: UACC-257
[45] = tested on: UO-31
[46] = tested on: 786-0
[47] = tested on: CAKI-1
[48] = tested on: EKVX
[49] = tested on: HOP-62
[50] = tested on: IGROV-1
[51] = tested on: Malme-3M
[52] = tested on: OVCAR-5
[53] = tested on: RPMI-8226
[54] = tested on: SF-539
[55] = tested on: SK-MEL-28
[56] = tested on: SK-MEL-2
[57] = tested on: SK-OV-3
[58] = tested on: UACC-62

In the case of `Nc1ccc(S(=O)(=O)Nc2ncccn2)cc1` [SULFADIAZINE, SILVER], the GI50 [1] is reported as 1.82 µM (inactive), the GI50 [2] is reported as 2.12 µM (inactive) and the GI50 [3] is reported as 1.77 µM (inactive).
`[O-][n+]1c2c([n+]([O-])c3ccccc31)-c1cccc3cccc-2c13` was tested, and the GI50 [4] was > 100 µM (inactive), the GI50 [5] was > 100 µM (inactive) and the GI50 [6] was > 100 µM (inactive). For the same compound, the GI50 [1] was > 100 µM (inactive), the GI50 [7] was > 100 µM (inactive) and the GI50 [8] was > 100 µM (inactive). The GI50 [9] was > 100 µM (inactive), the GI50 [10] was > 100 µM (inactive) and the GI50 [11] was > 100 µM. For the same compound, the GI50 [12] was > 100 µM (inactive), the GI50 [13] was 81.3 µM (inactive) and the GI50 [14] was > 100 µM (inactive). For the same compound, the GI50 [15] was 32.9 µM (inactive), the GI50 [2] was > 100 µM (inactive) and the GI50 [16] was > 100 µM (inactive). The GI50 [17] was 63 µM (inactive), the GI50 [18] was 48.1 µM (inactive) and the GI50 [19] was > 100 µM (inactive). For the same compound, the GI50 [20] was 33 µM (inactive), the GI50 [21] was > 100 µM (inactive) and the GI50 [22] was > 100 µM (inactive). For the same compound, the GI50 [23] was > 100 µM (inactive), the GI50 [24] was > 100 µM (inactive) and the GI50 [25] was 47.3 µM (inactive). For the same compound, the GI50 [26] was 91.2 µM (inactive), the GI50 [3] was 65.9 µM (inactive) and the GI50 [27] was > 100 µM (inactive). The GI50 [28] was > 100 µM (inactive), the GI50 [29] was > 100 µM (inactive) and the GI50 [30] was > 100 µM (inactive). For the same compound, the GI50 [31] was > 100 µM (inactive), the GI50 [32] was 21.2 µM (inactive) and the GI50 [33] was 29 µM (inactive). The GI50 [34] was 34.3 µM (inactive), the GI50 [35] was > 100 µM (inactive) and the GI50 [36] was > 100 µM (inactive). The GI50 [37] was > 100 µM (inactive), the GI50 [38] was 18.4 µM (inactive) and the GI50 [39] was > 100 µM (inactive). For the same compound, the GI50 [40] was > 100 µM (inactive), the GI50 [41] was > 100 µM (inactive) and the GI50 [42] was > 100 µM (inactive). The GI50 [43] was 43 µM (inactive), the GI50 [44] was > 100 µM (inactive) and the GI50 [45] was 43 µM (inactive).
For `Nc1ncnc2c(C3OC(CO)C(O)C3O)nsc12` (stereo not drawn), the GI50 [4] was < 0.0115 µM (active).
In the case of `Oc1cn(-c2ccc(Cl)cc2)nc1-c1n[nH]c(=S)n1-c1ccccc1`, the GI50 [46] is reported as 11.6 µM (inactive), the GI50 [4] is reported as 14 µM (inactive) and the GI50 [5] is reported as 14.1 µM (inactive). For the same compound, the GI50 [6] was 18.8 µM (inactive), the GI50 [47] was 8.09 µM (inactive) and the GI50 [7] was 23 µM (inactive). For the same compound, the GI50 [8] was 22.3 µM (inactive), the GI50 [48] was 27.2 µM (inactive) and the GI50 [10] was 6.37 µM (inactive). For the same compound, the GI50 [11] was 3.36 µM, the GI50 [12] was 4.13 µM (inactive) and the GI50 [49] was 10 µM (inactive). The GI50 [13] was > 100 µM (inactive), the GI50 [14] was 19.8 µM (inactive) and the GI50 [15] was 7.64 µM (inactive). For the same compound, the GI50 [50] was 4.6 µM (inactive), the GI50 [2] was 3.95 µM (inactive) and the GI50 [16] was 4.36 µM (inactive). For the same compound, the GI50 [18] was 7 µM (inactive), the GI50 [19] was 4.42 µM (inactive) and the GI50 [20] was 57.5 µM (inactive). The GI50 [21] was 1.95 µM (inactive), the GI50 [23] was 62.7 µM (inactive) and the GI50 [51] was 16.2 µM (inactive). The GI50 [24] was 6.22 µM (inactive), the GI50 [25] was 10.5 µM (inactive) and the GI50 [26] was 10.6 µM (inactive). For the same compound, the GI50 [3] was 5.01 µM (inactive), the GI50 [27] was 3.79 µM (inactive) and the GI50 [28] was 2.51 µM (inactive). For the same compound, the GI50 [29] was 52.6 µM (inactive), the GI50 [52] was 24.2 µM (inactive) and the GI50 [30] was 14.9 µM (inactive). The GI50 [31] was 27.5 µM (inactive), the GI50 [53] was 5.46 µM (inactive) and the GI50 [32] was 11.1 µM (inactive). For the same compound, the GI50 [33] was 10.4 µM (inactive), the GI50 [34] was 4.94 µM (inactive) and the GI50 [54] was 5.92 µM (inactive). The GI50 [55] was 16.8 µM (inactive), the GI50 [56] was 22.4 µM (inactive) and the GI50 [35] was 4.19 µM (inactive). For the same compound, the GI50 [57] was 17.2 µM (inactive), the GI50 [36] was 17.8 µM (inactive) and the GI50 [37] was 16.8 µM (inactive). The GI50 [38] was 21.1 µM (inactive), the GI50 [39] was 2.97 µM (inactive) and the GI50 [40] was 5.07 µM (inactive). For the same compound, the GI50 [41] was 19.5 µM (inactive), the GI50 [42] was 22 µM (inactive) and the GI50 [43] was 10.8 µM (inactive). For the same compound, the GI50 [44] was 20.7 µM (inactive), the GI50 [58] was 11.4 µM (inactive) and the GI50 [45] was 14.2 µM (inactive).
